What was measured:
HMOX1 gene = test: HMOX1 mRNA expression in HepG2 cells (Nanostring); format: cell-based, human; details: 24 hours treatment
Protocol: Example 147. HMOX1 Inducers of the Invention Strongly Increase In Vitro Expression of HMOX1
RNA Isolation and Quantification of Gene Expression
HepG2 cells were seeded at 250 k/well in 12-well tissue culture plates coated with collagen (collagen I, rat tail (thin plate coating); ENZO Life Sciences) for approximately 24 hours. The seeded cells were then treated with dose titration of the compound of Example 17 or dimethyl fumarate (DMF) (a Nrf2 activator; Fisher Scientific) via media change, with biological triplicates performed for each treatment. After approximately 24 hours of treatment, cells were visually inspected to confirm that no toxicity occurred with compound treatment. The treated cells were washed with PBS, aspirated, parafilmed and frozen at −80° C. prior to RNA isolation. RNA was isolated using Machery-Nagel isolation kit (NucleoSpin® RNA: catalog 740955.250) and then quantitated using ThermoFisher Nanodrop.
RNA was diluted for Nanostring gene expression analysis. […]
The relative mRNA levels of the HMOX1 gene in HepG2 cells treated with the compound of Example 17 or DMF were measured according to the methods described above. […]

VCAM-1 = VCAM-1 gene expression in TNFα-stimulated primary human endothelial cells; format: cell-based; details: HPAEC
From the text: Example 150. Gene Expression in Primary Human Endothelial Cells
Inflammatory conditions in endothelial cells increase expression of adhesion molecules, such as VCAM-1, ICAM-1 and E-selectin through NF-kB signaling. HMOX1 −/− endothelial cells show increased expression of VCAM-1 in response to TNF stimulation, as compared to HMOX +/+endothelial cells. See Seldon et al., J Immunol Dec. 1, 2007, 179 (11) 7840-7851.
Primary human pulmonary artery endothelial cells (HPAEC) (Lonza #CC-2530) were seeded in 12-well plates (TrueLine #TR5001) at 200 k cells per well and placed at 37° C. in 5% CO2. 18-24 hr post seeding, cells were treated with the compound of Example 17 via media change. 24 hr post treatment with the compound, cells were treated with 10 ng/mL TNFα (Invitrogen #PHC3015 in H2O) alone or with the compound of Example 17. […] 20ng cDNA was mixed with water, iQ™ SYBR® Green Supermix (BioRad #170-8886), and 300 nM primer (IDT #NM_001078) for a total 10ul reaction and loaded into 384-well white qPCR plates and subsequently analyzed using BioRad CFX384. […] To calculate fold change, the ΔCt on a per sample basis was calculated as Ct (Gene of interest)—Ct (Average of reference genes). The ΔΔCt was then calculated as ΔCt (experimental sample)—Average ΔCt (control group). […]

Cn1c(Nc2nc3ccccc3o2)nc2cc(C(=O)NCCOCCO)ccc21 [Example 17, 2-(benzo[d]oxazol-2-ylamino)-N-(2-(2-hydroxyethoxy)ethyl)-1-methyl-1H-benzo[d]imidazole-5-carboxamide]
HMOX1 expression, 30 μM compound of Example 17 relative to 250 μM DMF (HMOX1 gene): 4 times | HMOX1 expression compared with DMF (HMOX1 gene; mRNA fold change vs DMSO): much more strongly than DMF | TNF-α mediated endothelial cell activation (VCAM-1 expression) (VCAM-1; 24 hr pre-treatment, 10 ng/mL TNFα 4 hours): reduced this TNF-α mediated endothelial cell activation | toxicity, visual inspection of cells (VCAM-1; after 4 hours of TNFα treatment): no toxicity being noted
